The record followed here is patent US8067461B2, “3-acyl coumarins, thiochromones and quinolones and therapeutic uses thereof” (Temple University-Of The Commonwealth System of Higher …, priority 2005, dated 2011).

One assay concerns the target CDK4/CyclinD1 (Homo sapiens, UniProt P11802). The assay can be described thus: In vitro kinase assay CDK4/CyclinD1, 32P incorporation into GST-Rb.
In a further assay the test system is DU145 Cells. The assay can be described thus: Cytotoxicity on DU145 tumor cells, viable cells by Trypan blue exclusion. Format: cell-based, human. Conditions: DU145 prostate cell line, 96 h continuous treatment, five concentrations (1-100 μM range). On the procedure:
The effect of compounds according to Formula I on the growth of human tumor cells in culture was evaluated using the androgen receptor negative prostate cell line DU145. All cell cultures were maintained at 37° C. in a humidified atmosphere of 5% CO2.
Cells were treated with compounds according to Formula I at five different concentrations (1-100 μM range) for each compound. The dose response of each cell line was established by determining the number of viable cells after 96 h of continuous treatment against each of the different test concentrations of each compound. The determination of viable cells was done by the by the Trypan blue exclusion method. An IC50 (μM) for each compound was determined.

The next assay addresses T1, CDK1/CyclinB (Homo sapiens, UniProt P06493).
T1 construct: purchased Upstate USA, Charlottesville, Va
Nature of the assay: In vitro kinase assay CDK1/CyclinB, 32P incorporation into Histone H1. Format: biochemical. Conditions: recombinant human enzyme complex, average of two independent experiments in triplicate.

The next assay concerns the target T2, CDK2/CylinE (Homo sapiens, UniProt P24941).
T2 construct: purchased Upstate USA, Charlottesville, Va
The assay can be described thus: In vitro kinase assay CDK2/CylinE, 32P incorporation into Histone H1. It counts as biochemical. Conditions: recombinant human enzyme complex, average of two independent experiments in triplicate.

The target in the next assay is T3, CDK9/CyclinT1 (Homo sapiens, UniProt P50750).
T3 construct: purchased Upstate USA, Charlottesville, Va
The assay can be described thus: In vitro kinase assay CDK9/CyclinT1, 32P incorporation into RNA Polymerase II carboxy terminal domain. It counts as biochemical. Conditions: recombinant human enzyme complex, average of two independent experiments in triplicate.

Usually IC50 stands for the concentration needed to halve the response being measured.

The structures appear in SMILES notation. Where two headings read alike, the source gives them in different places.

T3 sequence (P50750 whole entry): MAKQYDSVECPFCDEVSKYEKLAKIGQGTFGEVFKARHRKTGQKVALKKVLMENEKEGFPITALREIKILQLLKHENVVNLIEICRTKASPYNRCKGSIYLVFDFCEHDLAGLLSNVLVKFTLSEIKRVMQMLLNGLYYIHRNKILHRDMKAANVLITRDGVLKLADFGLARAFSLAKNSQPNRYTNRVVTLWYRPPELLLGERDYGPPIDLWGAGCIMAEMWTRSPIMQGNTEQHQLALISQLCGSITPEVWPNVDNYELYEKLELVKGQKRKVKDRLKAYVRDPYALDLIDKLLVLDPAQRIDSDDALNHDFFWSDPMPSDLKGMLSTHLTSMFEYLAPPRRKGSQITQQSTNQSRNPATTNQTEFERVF
T3 sequence (O60563 whole entry partner): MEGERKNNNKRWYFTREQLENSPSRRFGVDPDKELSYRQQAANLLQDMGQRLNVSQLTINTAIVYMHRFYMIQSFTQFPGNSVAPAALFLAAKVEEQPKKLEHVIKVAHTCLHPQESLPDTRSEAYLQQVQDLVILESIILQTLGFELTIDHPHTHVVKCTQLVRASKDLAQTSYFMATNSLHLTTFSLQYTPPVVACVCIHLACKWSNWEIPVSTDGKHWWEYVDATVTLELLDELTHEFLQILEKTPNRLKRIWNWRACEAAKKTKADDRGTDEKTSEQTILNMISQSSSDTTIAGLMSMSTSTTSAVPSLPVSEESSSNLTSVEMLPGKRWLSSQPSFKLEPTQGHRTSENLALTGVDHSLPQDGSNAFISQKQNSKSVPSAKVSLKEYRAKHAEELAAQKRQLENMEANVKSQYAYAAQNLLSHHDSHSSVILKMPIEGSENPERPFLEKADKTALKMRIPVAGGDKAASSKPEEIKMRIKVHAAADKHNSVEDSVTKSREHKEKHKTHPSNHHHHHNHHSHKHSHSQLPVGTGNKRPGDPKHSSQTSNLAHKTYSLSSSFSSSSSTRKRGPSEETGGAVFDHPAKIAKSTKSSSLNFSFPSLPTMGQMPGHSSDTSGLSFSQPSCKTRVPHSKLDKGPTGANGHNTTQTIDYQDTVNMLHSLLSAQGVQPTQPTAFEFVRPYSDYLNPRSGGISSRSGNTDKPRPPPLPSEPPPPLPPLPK
Chain of CDK4/CyclinD1 (P11802 whole entry): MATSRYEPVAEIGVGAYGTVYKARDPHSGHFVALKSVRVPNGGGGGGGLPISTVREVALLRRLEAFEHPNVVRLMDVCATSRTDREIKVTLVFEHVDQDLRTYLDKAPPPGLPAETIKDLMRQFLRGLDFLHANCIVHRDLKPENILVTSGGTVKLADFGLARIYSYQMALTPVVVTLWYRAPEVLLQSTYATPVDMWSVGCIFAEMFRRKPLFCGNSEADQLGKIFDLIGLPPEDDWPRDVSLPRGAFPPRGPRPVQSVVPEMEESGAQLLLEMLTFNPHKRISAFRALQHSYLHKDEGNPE
Chain of CDK4/CyclinD1 (P24385 whole entry partner): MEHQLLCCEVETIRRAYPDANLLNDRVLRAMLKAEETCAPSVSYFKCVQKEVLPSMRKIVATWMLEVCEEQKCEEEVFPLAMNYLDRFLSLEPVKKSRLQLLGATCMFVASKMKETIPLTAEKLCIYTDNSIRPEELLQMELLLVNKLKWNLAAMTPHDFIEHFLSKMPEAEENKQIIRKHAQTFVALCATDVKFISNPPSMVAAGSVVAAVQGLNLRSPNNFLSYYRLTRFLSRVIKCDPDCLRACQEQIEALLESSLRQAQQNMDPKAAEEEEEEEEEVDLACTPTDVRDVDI
T1 sequence (P06493 whole entry): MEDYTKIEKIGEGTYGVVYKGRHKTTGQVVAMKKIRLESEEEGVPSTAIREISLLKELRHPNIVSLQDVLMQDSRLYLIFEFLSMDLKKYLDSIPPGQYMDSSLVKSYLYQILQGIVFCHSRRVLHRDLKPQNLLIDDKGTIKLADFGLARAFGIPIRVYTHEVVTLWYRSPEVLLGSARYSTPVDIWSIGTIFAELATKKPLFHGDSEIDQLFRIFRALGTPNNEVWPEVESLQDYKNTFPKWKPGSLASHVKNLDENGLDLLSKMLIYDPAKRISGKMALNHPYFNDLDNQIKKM
T1 sequence (P14635 whole entry partner): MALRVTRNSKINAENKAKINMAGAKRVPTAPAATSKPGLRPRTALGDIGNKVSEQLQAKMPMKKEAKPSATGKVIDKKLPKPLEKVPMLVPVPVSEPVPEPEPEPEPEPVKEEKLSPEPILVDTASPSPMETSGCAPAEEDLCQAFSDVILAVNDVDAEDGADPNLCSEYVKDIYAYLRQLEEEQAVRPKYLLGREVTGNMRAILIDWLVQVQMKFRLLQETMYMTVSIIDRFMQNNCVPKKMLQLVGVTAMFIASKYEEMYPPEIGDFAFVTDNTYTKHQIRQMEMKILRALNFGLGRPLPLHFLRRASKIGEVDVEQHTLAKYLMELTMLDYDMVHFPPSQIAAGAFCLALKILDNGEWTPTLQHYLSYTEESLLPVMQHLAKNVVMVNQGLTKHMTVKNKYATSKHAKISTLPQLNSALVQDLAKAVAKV

At CDK4/CyclinD1, `O=C(c1cc2cc([N+](=O)[O-])cc(Br)c2oc1=O)c1cc2cc([N+](=O)[O-])cc(Br)c2oc1=O` [Example 27, 6-nitro-8-bromo-3-[(6-nitro-8-bromo-2-oxocbromen-3-yl)carbonyl]-chromen-2-one] came in with an IC50 of more than 10 µM.
Regarding `O=C(c1cc2ccc(O)cc2oc1=O)c1cc2ccc(O)cc2oc1=O` [Example 11, 7-hydroxy-3-[(7-hydroxy-2-oxo-chromen-3-yl)carbonyl]chromen-2-one], the IC50 in the assay on DU145 Cells (Homo sapiens, DU-145) is more than 100 µM; at CDK1/CyclinB, more than 10 µM; against CDK4/CyclinD1, more than 10 µM.
`O=C(c1cc2cccc(O)c2oc1=O)c1cc2cccc(O)c2oc1=O` [Example 17, 8-hydroxy-3-[(8-hydroxy-2-oxochromen-3-yl)carbonyl]chromen-2-one]: the IC50 with DU145 Cells (Homo sapiens, DU-145) is 25 to 50 µM; at CDK1/CyclinB, more than 10 µM; against CDK4/CyclinD1, more than 10 µM.
For the compound `COc1ccc2cc(C(=O)c3cc4ccc(OC)cc4oc3=O)c(=O)oc2c1` [Example 2, 7-methoxy-3-[(7-methoxy-2-oxochromen-3-yl)carbonyl]chromen-2-one], the IC50 in the assay with DU145 Cells (Homo sapiens, DU-145) was more than 100 µM; on CDK1/CyclinB it was more than 10 µM; at CDK4/CyclinD1 it was more than 10 µM.
As for `O=C(c1cc2cccc(F)c2oc1=O)c1cc2cccc(F)c2oc1=O` [Example 26, 8-fluoro-3-[(8-fluoro-2-oxochromen-3-yl)carbonyl]chromen-2-one], the concentration for half-maximal inhibition (IC50) on CDK1/CyclinB and against CDK4/CyclinD1 was more than 10 µM each time.
On to `COc1cc([N+](=O)[O-])cc2cc(C(=O)c3cc4cc([N+](=O)[O-])cc(OC)c4oc3=O)c(=O)oc12` [Example 10, 8-methoxy-3-[(8-methoxy-6-nitro-2-oxo-chromen-3-yl)carbonyl]-6-nitro-chromen-2-one], for which the IC50 in the assay with DU145 Cells (Homo sapiens, DU-145) was 10 to 25 µM; on CDK1/CyclinB it was more than 10 µM; at CDK2/CylinE, 0.549 µM; on CDK9/CyclinT1 it was 0.5 µM; at CDK4/CyclinD1, more than 10 µM.
For the compound `O=C(c1cc2cc(F)ccc2oc1=O)c1cc2cc(F)ccc2oc1=O` [Example 7, 6-fluoro-3-[(6-fluoro-2-oxochromen-3-yl)carbonyl]chromen-2-one], the IC50 in the assay with DU145 Cells (Homo sapiens, DU-145) is more than 100 µM; at CDK1/CyclinB it was more than 10 µM; on CDK4/CyclinD1 it was more than 10 µM.
Turning to `O=C(c1cc2ccccc2oc1=O)c1cc2ccccc2oc1=O` [Example 5], the IC50 in the assay on DU145 Cells (Homo sapiens, DU-145) was more than 100 µM; on CDK1/CyclinB, more than 10 µM; against CDK4/CyclinD1, more than 10 µM.
As to `COc1cc(OC)c2cc(C(=O)c3cc4c(OC)cc(OC)cc4oc3=O)c(=O)oc2c1` [Example 3, 5,7-dimethoxy-3-[(5,7-dimethoxy-2-oxochromen-3-yl)carbonyl]chromen-2-one], the half-maximal inhibitory concentration (IC50) is more than 100 µM in the assay on DU145 Cells (Homo sapiens, DU-145); more than 10 µM at CDK1/CyclinB; more than 10 µM at CDK4/CyclinD1.
Regarding `COc1cc(Br)cc2cc(C(=O)c3cc4cc(Br)cc(OC)c4oc3=O)c(=O)oc12` [Example 16, 6-bromo-8-methoxy-3-[(6-bromo-8-methoxy-2-oxochromen-3-yl)-carbonyl]chromen-2-one], the IC50 with DU145 Cells (Homo sapiens, DU-145) is 50 to 100 µM; on CDK1/CyclinB it was more than 10 µM; on CDK4/CyclinD1, more than 10 µM.
Regarding `O=C(c1cc2cc(Cl)cc(Br)c2oc1=O)c1cc2cc(Cl)cc(Br)c2oc1=O` [Example 19, 6-chloro-8-bromo-3-[(6-chloro-8-bromo-2-oxochromen-3-yl)carbonyl]-chromen-2-one], the IC50 was 1 to 10 µM with DU145 Cells (Homo sapiens, DU-145); 1 to 10 µM on CDK1/CyclinB; 0.089 µM on CDK2/CylinE; 0.5 µM on CDK9/CyclinT1; more than 10 µM on CDK4/CyclinD1.
In the case of `COc1cccc2oc(=O)c(C(=O)c3cc4c(OC)cccc4oc3=O)cc12` [Example 21, 5-methoxy-3-[(5-methoxy-2-oxochromen-3-yl)carbonyl]chromen-2-one], the concentration for half-maximal inhibition (IC50) with DU145 Cells (Homo sapiens, DU-145) is 50 to 100 µM; at CDK1/CyclinB, more than 10 µM; on CDK2/CylinE it was 10 µM; at CDK9/CyclinT1, 0.5 µM; on CDK4/CyclinD1 it was more than 10 µM.
Consider `CCOc1cccc2cc(C(=O)c3cc4cccc(OCC)c4oc3=O)c(=O)oc12` [Example 4, 8-ethoxy-3-[(8-ethoxy-2-oxochromen-3-yl)carbonyl]chromen-2-one], for which the IC50 is more than 100 µM in the assay with DU145 Cells (Homo sapiens, DU-145); more than 10 µM at CDK1/CyclinB; more than 10 µM at CDK4/CyclinD1.
Regarding `O=C(c1cc2cc(F)cc(F)c2oc1=O)c1cc2cc(F)cc(F)c2oc1=O` [Example 14, 6,8-difluoro-3-[(6,8-difluoro-2-oxochromen-3-yl)carbonyl]chromen-2-one], the IC50 with DU145 Cells (Homo sapiens, DU-145) was 10 to 25 µM; on CDK1/CyclinB, more than 10 µM; against CDK4/CyclinD1, more than 10 µM.
On to `O=C(c1cc2cccc([N+](=O)[O-])c2oc1=O)c1cc2cccc([N+](=O)[O-])c2oc1=O` [Example 24, 8-nitro-3-[(8-nitro-2-oxo-chromen-3-yl)carbonyl]chromen-2-one], for which the concentration for half-maximal inhibition (IC50) on CDK1/CyclinB and against CDK4/CyclinD1 was more than 10 µM in each case.
Consider `O=C(c1cc2cc(O)ccc2oc1=O)c1cc2cc(O)ccc2oc1=O` [Example 18, 6-hydroxy-3-[(6-hydroxy-2-oxochromen-3-yl)carbonyl]chromen-2-one], for which the IC50 in the assay on DU145 Cells (Homo sapiens, DU-145) is more than 100 µM; at CDK1/CyclinB it was more than 10 µM; on CDK4/CyclinD1, more than 10 µM.
As for `O=C(c1cc2cc3ccccc3cc2oc1=O)c1cc2cc3ccccc3cc2oc1=O` [Example 20, [(2-oxobenzo[g]chromen-3-yl)-carbonyl]benzo[g]chromen-2-one], the IC50 was 25 to 50 µM in the assay on DU145 Cells; more than 10 µM at CDK1/CyclinB; more than 10 µM at CDK4/CyclinD1 (read-out: CDK4 IC50, recombinant human enzyme complex, average of two independent experiments in triplicate).
Consider `O=C(c1cc2cc(OC(F)(F)F)ccc2oc1=O)c1cc2cc(OC(F)(F)F)ccc2oc1=O` [Example 23, 6-trifluoromethoxy-3-[(6-tri-fluoromethoxy-2-oxochromen-3-yl)-carbonyl]chromen-2-one], for which the IC50 on CDK1/CyclinB and on CDK4/CyclinD1 was more than 10 µM each time.
For `O=C(c1cc2cc(I)ccc2oc1=O)c1cc2cc(I)ccc2oc1=O` [Example 8, 6-iodo-3-[(6-iodo-2-oxochromen-3-yl)carbonyl]chromen-2-one], the IC50 in the assay on DU145 Cells (Homo sapiens, DU-145) was more than 100 µM; at CDK1/CyclinB, more than 10 µM; on CDK4/CyclinD1, more than 10 µM.
In the case of `Cc1ccc2oc(=O)c(C(=O)c3cc4cc(C)ccc4oc3=O)cc2c1` [Example 22, 6-methyl-3-[(6-methyl-2-oxochromen-3-yl)carbonyl]chromen-2-one], the results for the IC50 at CDK1/CyclinB and on CDK4/CyclinD1 were 1 to 10 µM and more than 10 µM, respectively.
Regarding `O=C(c1cc2cc([N+](=O)[O-])ccc2oc1=O)c1cc2cc([N+](=O)[O-])ccc2oc1=O` [Example 9, 6-nitro-3-[(6-nitro-2-oxochromen-3-yl)carbonyl]chromen-2-one], the IC50 is 1 to 10 µM in the assay with DU145 Cells (Homo sapiens, DU-145); more than 10 µM on CDK1/CyclinB; 1.54 µM at CDK2/CylinE; 0.5 µM on CDK9/CyclinT1; more than 10 µM on CDK4/CyclinD1.
`COc1ccc(Br)c2cc(C(=O)c3cc4c(Br)ccc(OC)c4oc3=O)c(=O)oc12` [Example 15, 5-bromo-8-methoxy-3-[(5-bromo-8-methoxy-2-oxochromen-3-yl)-carbonyl]chromen-2-one]: the IC50 is 25 to 50 µM with DU145 Cells (Homo sapiens, DU-145); more than 10 µM at CDK1/CyclinB; more than 10 µM against CDK4/CyclinD1.
As for `O=C(c1cc2cc(Cl)cc(Cl)c2oc1=O)c1cc2cc(Cl)cc(Cl)c2oc1=O` [Example 12, 6,8-dichloro-3-[(6,8-dichloro-2-oxochromen-3-yl)carbonyl]chromen-2-one], the IC50 with DU145 Cells (Homo sapiens, DU-145) is 10 to 25 µM; on CDK1/CyclinB, more than 10 µM; against CDK4/CyclinD1, 2.5 to 5 µM.
As to `O=C(c1cc2cc(Cl)ccc2oc1=O)c1cc2cc(Cl)ccc2oc1=O` [Example 6, 6-chloro-3-[(6-chloro-2-oxochromen-3-yl)carbonyl]chromen-2-one], the IC50 was more than 100 µM in the assay on DU145 Cells (Homo sapiens, DU-145); 1 to 10 µM at CDK1/CyclinB; more than 10 µM against CDK4/CyclinD1.
In the case of `O=C(c1cc2cc(Br)cc(Br)c2oc1=O)c1cc2cc(Br)cc(Br)c2oc1=O` [Example 13, 6,8-dibromo-3-[(6,8-dibromo-2-oxochromen-3-yl)carbonyl]chromen-2-one], the IC50 is 10 to 25 µM in the assay on DU145 Cells (Homo sapiens, DU-145); 10 µM on CDK2/CylinE; 0.5 µM at CDK9/CyclinT1; 2.5 to 5 µM against CDK4/CyclinD1.
Turning to `O=C(c1cc2cc(Br)ccc2oc1=O)c1cc2cc(Br)ccc2oc1=O` [Example 1, 6-bromo-3-[(6-bromo-2-oxo-chromen-3-yl)carbonyl]chromen-2-one], the IC50 in the assay on DU145 Cells (Homo sapiens, DU-145) was more than 100 µM; on CDK1/CyclinB it was more than 10 µM; against CDK4/CyclinD1, more than 10 µM.
Turning to `O=C(c1cc2cc(I)cc(I)c2oc1=O)c1cc2cc(I)cc(I)c2oc1=O` [Example 29, 6,8-diiodo-3-[(6,8-diiodo-2-oxochromen-3-yl)carbonyl]chromen-2-one], the IC50 in the assay with DU145 Cells (Homo sapiens, DU-145) was 10 to 20 µM; against CDK4/CyclinD1 it was 0.04 µM.
